According to ChEMBL document CHEMBL3351696, “Design of chemically stable, potent, and efficacious MDM2 inhibitors that exploit the retro-mannich ring-opening-cyclization reaction mechanism in spiro-oxindoles” (J Med Chem, 2014):
Activity calls are given as the source filed them. The calls are words filed in the database; no cut-off is given here.

Experiments:
SJSA-1 [1] = assay: cells; conditions: Homo sapiens
cells [2] = conditions: Homo sapiens, HCT-116
cells [3] = conditions: Homo sapiens, HCT-116; remark: listed apart in the source
physchem [4] = conditions: 1:1 CH3CN/H2O
physchem [5] = conditions: 1:1 CH3CN/H2O; remark: listed apart in the source
physchem [6] = conditions: 1:1 CH3CN/H2O; remark: listed apart in the source
physchem [7] = conditions: 1:1 CH3CN/H2O; remark: listed apart in the source
physchem [8] = conditions: 1:1 MeOH/H2O solution
physchem [9] = conditions: 1:1 CH3CN/H2O solution
SJSA-1 [10] = conditions: Homo sapiens, 200 mg/kg

Question: With `O=C(NCCN1CCOCC1)[C@@H]1NC2(CCC2)[C@@]2(C(=O)Nc3cc(Cl)ccc32)[C@H]1c1cccc(Cl)c1F` as the molecule, how does the IC50 (SJSA-1 [1]) read?
Answer: 2.3 µM

Question: For `CCC1(CC)N[C@@H](C(=O)NCC[C@H](O)CO)[C@H](c2cccc(Cl)c2F)[C@]12C(=O)Nc1cc(Cl)ccc12`, which IC50 (SJSA-1 [1]) is on record?
Answer: > 10 µM

Question: For `O=C(O)c1ccc(NC(=O)[C@@H]2NC3(CCCCC3)[C@@]3(C(=O)Nc4cc(Cl)ccc43)[C@H]2c2cccc(Cl)c2F)cc1`, which IC50 (cells [2]) is on record?
Answer: 0.25 µM

Question: And the IC50 (cells [3])?
Answer: > 10 µM

Question: What about the IC50 (SJSA-1 [1]) of the same molecule?
Answer: 0.1 µM

Question: With `CCC1(CC)N[C@@H](C(=O)N[C@H]2CC[C@H](O)CC2)[C@H](c2cccc(Cl)c2F)[C@]12C(=O)Nc1cc(Cl)ccc12` as the molecule, how does the IC50 (SJSA-1 [1]) read?
Answer: 5.4 µM

Question: With `O=C(NCCN1CCOCC1)[C@@H]1NC2(CCC2)[C@]2(C(=O)Nc3cc(Cl)ccc32)[C@H]1c1cccc(Cl)c1F` as the molecule, how does the IC50 (SJSA-1 [1]) read?
Answer: 1.65 µM

Question: Which IC50 (SJSA-1 [1]) does the source give for `CC1(C)N[C@@H](C(=O)N[C@H]2CC[C@H](O)CC2)[C@H](c2cccc(Cl)c2F)[C@]12C(=O)Nc1cc(Cl)ccc12` here?
Answer: 2.9 µM

Question: Which IC50 (SJSA-1 [1]) does the source give for `O=C(NCC[C@H](O)CO)[C@@H]1NC2(CCC2)[C@]2(C(=O)Nc3cc(Cl)ccc32)[C@H]1c1cccc(Cl)c1F` here?
Answer: 1.67 µM

Question: With `CCC1(CC)N[C@@H](C(=O)N[C@H]2C[C@@](C)(O)C2)[C@H](c2cccc(Cl)c2F)[C@]12C(=O)Nc1cc(Cl)ccc12` as the molecule, how does the IC50 (SJSA-1 [1]) read?
Answer: > 10 µM

Question: With `CCCC1(CCC)N[C@@H](C(=O)N[C@H]2CC[C@H](O)CC2)[C@H](c2cccc(Cl)c2F)[C@]12C(=O)Nc1cc(Cl)ccc12` as the molecule, how does the IC50 (SJSA-1 [1]) read?
Answer: 6.9 µM

Question: With `CC(C)(C)C[C@@H]1N[C@@H](C(=O)NCCN2CCOCC2)[C@H](c2cccc(Cl)c2F)[C@]12C(=O)Nc1cc(Cl)ccc12` as the molecule, how does the remaining at 72 h (physchem [4]) read?
Answer: 86.9%

Question: And the remaining at 0 h (physchem [5])?
Answer: 98.1%

Question: What about the remaining at 24 h (physchem [6]) of the same molecule?
Answer: 90.8%

Question: What about the remaining at 144 h (physchem [7]) of the same molecule?
Answer: 82.7%

Question: For `O=C(NCC[C@H](O)CO)[C@@H]1NC2(CCC2)[C@@]2(C(=O)Nc3cc(Cl)ccc32)[C@H]1c1cccc(Cl)c1F`, which IC50 (SJSA-1 [1]) is on record?
Answer: 2.08 µM

Question: With `O=C(N[C@H]1CC[C@H](O)CC1)[C@@H]1NC2(CCCC2)[C@@]2(C(=O)Nc3cc(Cl)ccc32)[C@H]1c1cccc(Cl)c1F` as the molecule, how does the IC50 (SJSA-1 [1]) read?
Answer: 0.65 µM

Question: Which IC50 (SJSA-1 [1]) does the source give for `O=C(N[C@H]1CC[C@H](O)CC1)[C@@H]1NC2(CCCCCC2)[C@@]2(C(=O)Nc3cc(Cl)ccc32)[C@H]1c1cccc(Cl)c1F` here?
Answer: 2.1 µM

Question: Which remaining at 72 h (physchem [4]) does the source give for `CC(C)(C)C[C@@H]1N[C@@H](C(=O)N[C@H]2C[C@@](C)(O)C2)[C@H](c2cccc(Cl)c2F)[C@]12C(=O)Nc1cc(Cl)ccc12` here?
Answer: 98.6%

Question: What about the degraded at 168 h (physchem [8]) of the same molecule?
Answer: 2%

Question: And the remaining at 0 h (physchem [5])?
Answer: 100%

Question: And the degraded at 168 h (physchem [9])?
Answer: 2%

Question: What about the remaining at 24 h (physchem [6]) of the same molecule?
Answer: 99.6%

Question: What about the remaining at 144 h (physchem [7]) of the same molecule?
Answer: 97.7%

Question: For `O=C(NCC[C@H](O)CO)[C@@H]1NC2(CCCCC2)[C@@]2(C(=O)Nc3cc(Cl)ccc32)[C@H]1c1cccc(Cl)c1F`, which remaining at 72 h (physchem [4]) is on record?
Answer: 100%

Question: And the remaining at 0 h (physchem [5])?
Answer: 100%

Question: What about the remaining at 24 h (physchem [6]) of the same molecule?
Answer: 100%

Question: And the remaining at 144 h (physchem [7])?
Answer: 100%

Question: What about the IC50 (SJSA-1 [1]) of the same molecule?
Answer: 0.2 µM

Question: For `C[C@]1(O)C[C@@H](NC(=O)[C@@H]2NC3(CCC3)[C@]3(C(=O)Nc4cc(Cl)ccc43)[C@H]2c2cccc(Cl)c2F)C1`, which IC50 (SJSA-1 [1]) is on record?
Answer: 1.46 µM

Question: With `CCC1(CC)N[C@@H](C(=O)NCCN2CCOCC2)[C@H](c2cccc(Cl)c2F)[C@]12C(=O)Nc1cc(Cl)ccc12` as the molecule, how does the IC50 (SJSA-1 [1]) read?
Answer: > 10 µM

Question: With `C[C@]1(O)C[C@@H](NC(=O)[C@@H]2NC3(CCC3)[C@@]3(C(=O)Nc4cc(Cl)ccc43)[C@H]2c2cccc(Cl)c2F)C1` as the molecule, how does the IC50 (SJSA-1 [1]) read?
Answer: 1.68 µM

Question: With `O=C(N[C@H]1CC[C@H](O)CC1)[C@@H]1NC2(CCCCC2)[C@@]2(C(=O)Nc3cc(Cl)ccc32)[C@H]1c1cccc(Cl)c1F` as the molecule, how does the IC50 (cells [2]) read?
Answer: 0.32 µM

Question: What about the TGI (SJSA-1 [10]) of the same molecule?
Answer: Active

Question: And the IC50 (cells [3])?
Answer: > 10 µM

Question: What about the IC50 (SJSA-1 [1]) of the same molecule?
Answer: 0.19 µM

Question: Which remaining at 72 h (physchem [4]) does the source give for `C[C@]1(O)C[C@@H](NC(=O)[C@@H]2NC3(CCCCC3)[C@@]3(C(=O)Nc4cc(Cl)ccc43)[C@H]2c2cccc(Cl)c2F)C1` here?
Answer: 100%

Question: And the remaining at 0 h (physchem [5])?
Answer: 100%

Question: And the remaining at 24 h (physchem [6])?
Answer: 100%

Question: And the remaining at 144 h (physchem [7])?
Answer: 100%

Question: What about the IC50 (SJSA-1 [1]) of the same molecule?
Answer: 0.16 µM

Question: Which remaining at 72 h (physchem [4]) does the source give for `CC(C)(C)C[C@@H]1N[C@@H](C(=O)NCC[C@H](O)CO)[C@H](c2cccc(Cl)c2F)[C@]12C(=O)Nc1cc(Cl)ccc12` here?
Answer: 95.7%

Question: And the remaining at 0 h (physchem [5])?
Answer: 97.5%

Question: And the remaining at 24 h (physchem [6])?
Answer: 95.8%

Question: And the remaining at 144 h (physchem [7])?
Answer: 91.4%

Question: For `O=C(N[C@H]1CC[C@H](O)CC1)[C@@H]1NC2(CCC2)[C@@]2(C(=O)Nc3cc(Cl)ccc32)[C@H]1c1cccc(Cl)c1F`, which IC50 (SJSA-1 [1]) is on record?
Answer: 1.6 µM

Question: For `O=C(N[C@H]1CC[C@H](O)CC1)[C@@H]1NC2(CCC2)[C@]2(C(=O)Nc3cc(Cl)ccc32)[C@H]1c1cccc(Cl)c1F`, which IC50 (SJSA-1 [1]) is on record?
Answer: 2 µM

Question: For `O=C(NCCN1CCOCC1)[C@@H]1NC2(CCCCC2)[C@@]2(C(=O)Nc3cc(Cl)ccc32)[C@H]1c1cccc(Cl)c1F`, which remaining at 72 h (physchem [4]) is on record?
Answer: 99.6%

Question: And the remaining at 0 h (physchem [5])?
Answer: 100%

Question: And the remaining at 24 h (physchem [6])?
Answer: 100%

Question: What about the remaining at 144 h (physchem [7]) of the same molecule?
Answer: 99.2%

Question: And the IC50 (SJSA-1 [1])?
Answer: 0.3 µM
